Assays:
[1] = target: T1, GST-FABP7 (Homo sapiens, UniProt O15540, K110R); experiment: Evaluation of FABP ligand affinity using ANS (GST-FABP7); format: binding, mouse; conditions: ANS fluorescence displacement; mean±SE of three measurements; read-out: Kd value of FABP for each ligand, GST-FABP7
T1 construct: made in house; host or cells: E. coli BL21 (DE3)
T1 sequence (O15540 1-132 K110R): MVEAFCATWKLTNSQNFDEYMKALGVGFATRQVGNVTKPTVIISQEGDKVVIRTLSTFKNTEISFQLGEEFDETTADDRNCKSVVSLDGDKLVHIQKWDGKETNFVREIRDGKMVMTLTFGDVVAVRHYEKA
Protocol: (§1) GST-FABP3, GST-FABP4, GST-FABP5, and GST-FABP7 were each expressed in E. coli [BL21 (DE3) strain], and then affinity purification was performed using a glutathione column.
(§2) Cloning of GST-FABP3, GST-FABP4, GST-FABP5 and GST-FABP7 vectors was performed by the following method. After reverse transcription of mRNA isolated from mouse heart into cDNA, the FABP3 gene (RefSeqID: NM_010174.1) and FABP4 gene (RefSeqID: NM_024406.2) were each amplified by PCR. These cDNAs were each inserted between the BamHI/EcoRI cleavage sites of a pGEX-2T vector (GE HealthCare Japan, Tokyo) using a DNA ligation kit (Takara Bio, Kusatsu) and an In-fusion kit (Takara Bio USA, CA, USA) to prepare vectors.
(§3) Purification of GST-binding proteins was performed using a GST purification kit (Takara Bio USA). After the E. coli were collected by centrifugation, the provided extraction buffer and aluminum oxide powder were added, and the mixture was crushed in a mortar. The centrifuged supernatant was added to the provided glutathione column and allowed to stand on ice for 30 minutes. The supernatant in the column was then discarded, and washing was performed with extraction buffer, followed by elution with elution buffer containing glutathione. The protein concentration of the elution product was calculated from the absorbance at 280 nm and then used for the ANS assay. 1-anilinonaphthalene-8-sulfonic acid (ANS, final concentration: […], in a solution of 10 mM KH2PO4 and 40 mM KCl at pH 7.4), which binds to FABP proteins and emits fluorescence, and FABP proteins (final concentration: […]), as well as various ligands at concentrations of 0 nM, 100 nM, 1,000 nM, 2,000 nM, and 4,000 nM (final) were incubated for 2 min, and then the fluorescence of ANS was measured (Ex/Em=355 nm/460 nm). The fluorescence intensity at each ligand concentration was converted to a relative value (%) to the ANS fluorescence intensity in the absence of ligand, and then the dissociation constant Kd (nM) was calculated by […] using the following equation.
(§4) The Kd values in the above table are indicated as the mean±SE of three measurements. […] Example Compounds 1 to 5 in the table may also be referred to as Compounds 1 to 5, respectively.

[2] = system: ICR mice, focal cerebral ischemia (tMCAO); experiment: Cerebral neuroprotection in focal cerebral ischemia model (tMCAO); format: in vivo, mouse; conditions: tMCAO 2 hours, 0.3 mg/kg orally after reperfusion
Protocol: Male ICR mice (5 weeks old, 25-30 g) were purchased from Japan SLC, Inc. (Shizuoka, Japan). The animals were reared under constant temperature and humidity conditions, in a 12-hour light/dark cycle (light on: 09:00-21:00), and fed ad libitum. All mice were anesthetized with a combination of 0.3 mg/kg medetomidine, 4.0 mg/kg midazolam, and 5.0 mg/kg butorphanol. A silicone-coated 6-0 suture (Doccol Corporation, USA) was inserted from the right external carotid artery into the internal carotid artery up to the origin of the middle cerebral artery, and left in place for 2 hours, then the suture was removed and reperfusion was performed to prepare a mouse model of focal cerebral ischemia (tMCAO). Mice in the sham surgery group underwent the same treatment except for the insertion of the suture. […] Regional cerebral blood flow (rCBF) was monitored by Laser-Doppler flowmetry (FLOC1, OMEGAWAVE, Tokyo, Japan) to confirm whether the right hemisphere was ischemic or not. […] Infarct volume was measured using ImageJ software and expressed as a percentage of the total hemisphere (corresponding to B in FIG. 19, E in FIG. 21, and H in FIG. 23. The vertical axis Neurological score in C of FIG. 19, F of FIG. 21, and I of FIG. 23 represents the neurological deficit. The vertical axis Survival rate (%) in FIG. 24 corresponds to the mouse survival rate). […]

[3] = system: MPTP-treated C57BL6 N mice (PD model animals); experiment: Passive avoidance task in PD model animals (MPTP); format: in vivo, mouse; conditions: 0.05, 0.1 and 0.3 mg/kg p.o. once daily for two weeks from Day 20, Day 34, FIG. 2
[4] = target: T2, GST-FABP3; experiment: Evaluation of FABP ligand affinity using ANS (GST-FABP3); format: binding, mouse; conditions: ANS fluorescence displacement; mean±SE of three measurements; read-out: Kd value of FABP for each ligand, GST-FABP3
T2 construct: made in house; host or cells: E. coli BL21 (DE3)

[5] = system: phosphorylated α-synuclein; experiment: Phosphorylated α-synuclein staining in dopaminergic neurons of PD model animals; conditions: MPTP mice
Source text: (§5) The results for the substantia nigra region are shown in FIGS. 6, 7, 10, 11, 14, and 15, and for the ventrotegmental area in FIGS. 8, 9, 12, 13, 16, and 17 (the vertical axis Number of TH^+ cells in FIGS. 6 and 8 corresponds to the number of dopaminergic neurons. The vertical axis Number of double-positive cells/TH^+ positive cells (%) in FIGS. 11 and 13 corresponds to the percentage of dopaminergic neurons that contain phosphorylated α-synuclein. The vertical axis Triple-positive cells/TH-positive cells in FIGS. 15 and 17 corresponds to the percentage of dopaminergic neurons that contain both FABP3 and phosphorylated α-synuclein).

[6] = system: FABP3 and phosphorylated α-synuclein; experiment: Double staining for phosphorylated α-synuclein and FABP3 in dopaminergic neurons of PD model animals; format: in vivo, mouse; conditions: MPTP mice
Source text: as §5

[7] = target: T3, GST-FABP5; experiment: Evaluation of FABP ligand affinity using ANS (GST-FABP5); format: binding, mouse; conditions: ANS fluorescence displacement; mean±SE of three measurements; read-out: Kd value of FABP for each ligand, GST-FABP5
T3 construct: made in house; host or cells: E. coli BL21 (DE3)
Protocol: as §1, §2, §3

[8] = system: dopaminergic neurons (TH+ cells) in SNpc and VTA; experiment: Dopaminergic neuroprotection: TH-positive cells in brain sections of PD model animals; format: in vivo, mouse; conditions: MPTP mice; Example Compound 2 0.1, 0.3, 1.0 mg/kg or LIGAND 1 0.3 mg/kg; Day 34; FIGS. 6 to 9
Source text: as §5

[9] = system: MPTP-treated C57BL6 N mice (PD model animals); experiment: Rotarod task in PD model animals (MPTP); format: in vivo, mouse; conditions: Example Compound 2 0.03, 0.1, 0.3 mg/kg or LIGAND 1 0.3 mg/kg, Day 34, 20 rpm, FIG. 4
[10] = target: T4, GST-FABP4; experiment: Evaluation of FABP ligand affinity using ANS (GST-FABP4); format: binding, mouse; conditions: ANS fluorescence displacement; mean±SE of three measurements; read-out: Kd value of FABP for each ligand, GST-FABP4
T4 construct: made in house; host or cells: E. coli BL21 (DE3)
Protocol: as §1, §2, §3, §4

[11] = system: MPTP-treated C57BL6 N mice (PD model animals); experiment: Novel object recognition task in PD model animals (MPTP); format: in vivo, mouse; conditions: 0.03, 0.1 and 0.3 mg/kg p.o. once daily for two weeks, Day 34, FIG. 3
Protocol: In the novel object recognition task, objects of the same shape were placed to be memorized by the mice in the training trial, and in the test trial, one of the objects was replaced with a novel object, and the rate of contact with both objects (corresponding to the vertical axis Discrimination index (%) in FIG. 3) was evaluated.

[12] = system: MPTP-treated C57BL6 N mice (PD model animals); experiment: Beam walking task in PD model animals (MPTP); format: in vivo, mouse; conditions: Example Compound 2 0.03, 0.1, 0.3 mg/kg or LIGAND 1 0.3 mg/kg, Day 34, FIG. 5
Protocol: In the beam walking task, the mice were placed on a thin board and allowed to walk, and the number of foot slips before reaching the goal box (corresponding to the vertical axis Number of foot slips in FIG. 5) was measured.

[13] = system: dopaminergic neurons; conditions: reported in PTL 1 and NPL 6; cited from earlier work

T2 sequence (P05413 with tags, fused parts or gaps): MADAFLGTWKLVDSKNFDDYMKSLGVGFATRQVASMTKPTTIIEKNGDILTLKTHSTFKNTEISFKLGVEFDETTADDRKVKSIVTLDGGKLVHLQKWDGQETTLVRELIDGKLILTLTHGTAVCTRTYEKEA
T4 sequence (P15090 whole entry): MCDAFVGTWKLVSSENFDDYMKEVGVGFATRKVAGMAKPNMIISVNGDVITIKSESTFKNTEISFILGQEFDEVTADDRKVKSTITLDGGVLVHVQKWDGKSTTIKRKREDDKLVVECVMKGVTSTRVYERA
T3 sequence (Q01469 whole entry): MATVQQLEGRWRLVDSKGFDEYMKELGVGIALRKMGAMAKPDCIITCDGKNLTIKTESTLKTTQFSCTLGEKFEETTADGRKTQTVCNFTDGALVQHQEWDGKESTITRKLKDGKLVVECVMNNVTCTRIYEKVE

With O=C(O)CCCOc1ccc(F)cc1-c1cc(-c2ccccc2C(F)(F)F)n(-c2ccccc2)n1 [Example Compound 1, 4-(4-fluoro-2-(1-phenyl-5-(2-(trifluoromethyl)phenyl)-1H-pyrazol-3-yl)phenoxy)butanoic acid] the Kd [1] was no less than 1000 µM, the “Mouse survival rate compared to Vehicle mice” value ([2]; FIG. 24) was “improved” and the “Cerebral infarct volume compared to Vehicle mice” value ([2]; TTC staining) was “reduced”. For the same compound, the “Passive avoidance task: time until entering the dark room (Latency)” value [3] was “concentration-dependent prolongation of the waiting time”.
With O=C(O)CCCOc1ccccc1-c1cc(-c2ccccc2C(F)(F)F)n(-c2ccccc2)n1 [Example Compound 2, 4-(2-(1-phenyl-5-(2-(trifluoromethyl)phenyl)-1H-pyrazol-3-yl)phenoxy)butanoic acid] the Kd [1] was 2.05 ± 0.0352 µM, the Kd [4] was 0.0117 ± 0.0188 µM and the “Phosphorylation level of α-synuclein in dopaminergic neurons” value ([5]; 0.1, 0.3, 1.0 mg/kg, Day 34, SNpc and VTA, FIGS. 10 to 13) was “reduced”. The “Protection of dopaminergic neurons from the toxicity of phosphorylated α-synuclein, substantia nigra (SNpc)” value ([5]; brain sections of SNpc, FIG. 11) was “protected dopaminergic neurons”, the “Protection of dopaminergic neurons from the toxicity of phosphorylated α-synuclein, ventrotegmental area (VTA)” value ([5]; brain sections of VTA, FIG. 13) was “protected dopaminergic neurons” and the “Localization of FABP3 and phosphorylated α-synuclein in dopaminergic neurons” value ([6]; 0.1, 0.3, 1.0 mg/kg, Day 34, SNpc and VTA, FIGS. 14 to 17) was “reduced”. For the same compound, the “Interaction between phosphorylated α-synuclein and FABP3 in dopaminergic neurons, substantia nigra (SNpc)” value ([6]; brain sections of SNpc, FIG. 15) was “inhibited”, the “Interaction between phosphorylated α-synuclein and FABP3 in dopaminergic neurons, ventrotegmental area (VTA)” value ([6]; brain sections of VTA, FIG. 17) was “inhibited” and the Kd [7] was 0.189 ± 0.0245 µM. For the same compound, the “Number of TH+ cells (dopaminergic neurons) in SNpc and VTA” value [8] was “suppresses the decrease in dopaminergic neurons”, the “Rotarod task: time until the mice fell (Latency), motor function” value [9] was “improvement in motor function was confirmed” and the Kd [10] was 0.104 ± 0.0363 µM. The “Novel object recognition task: rate of contact with novel and known objects (Discrimination index)” value [11] was “trend of improvement in cognitive function” and the “Beam walking task: number of foot slips, motor function” value [12] was “improvement in motor function was confirmed”.
Compound O=C(O)CCCOc1ccccc1-c1nc(-c2ccccc2C(F)(F)F)n(-c2ccccc2)n1 [Example Compound 3, 4-(2-(1-phenyl-5-(2-(trifluoromethyl)phenyl)-1H-1,2,4-triazol-3-yl)phenoxy)butanoic acid] has a Kd [1] of no less than 1000 µM, a Kd [4] of 0.16 ± 0.0341 µM and a Kd [10] of 0.369 ± 0.0441 µM.
Work on CC(C)c1ccc(-n2nc(-c3cc(F)ccc3OCCCC(=O)O)cc2-c2ccccc2C(F)(F)F)cc1 [Example Compound 4, 4-(4-fluoro-2-(1-(4-isopropylphenyl)-5-(2-(trifluoromethyl)phenyl)-1H-pyrazol-3-yl)phenoxy)butanoic acid] yielded a Kd [1] of no less than 1000 µM, a Kd [4] of 0.113 ± 0.0031 µM and a Kd [7] of 1.35 ± 0.204 µM. It also gave a Kd [10] of 2.18 ± 0.458 µM.
In the case of CC(C)c1ccc(-n2nc(-c3ccccc3OCCCC(=O)O)cc2-c2ccccc2C(F)(F)F)cc1 [Example Compound 5, 4-(2-(1-(4-isopropylphenyl)-5-(2-(trifluoromethyl)phenyl)-1H-pyrazol-3-yl)phenoxy)butanoic acid], the Kd [1] is reported as no less than 1000 µM, the Kd [4] is reported as 0.0548 ± 0.0045 µM and the Kd [7] is reported as 1.82 ± 0.392 µM. The Kd [10] was 0.434 ± 0.0109 µM.
In the case of O=C(O)CCCOc1ccccc1-c1cc(-c2ccccc2Cl)n(-c2ccccc2)n1 [LIGAND 1, reference compound], the “Protection of dopaminergic neurons from cell death due to α-synuclein oligomerization” value [13] is listed as “protects dopaminergic neurons from cell death”, the Kd [7] is listed as 0.324 ± 0.0452 µM and the “Number of TH+ cells (dopaminergic neurons) in SNpc and VTA” value [8] is listed as “no improvement was observed”. For the same compound, the “Rotarod task: time until the mice fell (Latency), motor function” value [9] was “No improvement was observed”, the Kd [10] was 0.229 ± 0.0399 µM and the “Beam walking task: number of foot slips, motor function” value [12] was “Improvement was also confirmed”.
